Assay results taken from patent publication EP2582674B1 (Cymabay Therapeutics, Inc., priority 2010, dated 2011).

How the values were obtained:
[1] = molecular target: T1, human GPR120 (Homo sapiens, UniProt Q5NUL3); test: Intracellular Ca2+ assay in human GPR120 stable cell line (FLIPR Calcium 4 dye, Flexstation); format: cell-based; details: HEK293 cells co-expressing Gqi5; for activity at 2.5 µM: HEK293, % activity at 2.5 µM compared to the maximal activity of the compound of Example 25 at 2.5 µM (=100%), read-out: % Activity (Ex. 25 Reference Compound); for activity at 5 µM: HEK293, % activity at 5 µM compared to the maximal activity of GW9508 at 6.7 µM (=100%), read-out: %Activity (GW9508 Reference Compound)
T1 construct: host or cells: HEK293 cells co-expressing Gqi5
T1 sequence (Q5NUL3 1-361): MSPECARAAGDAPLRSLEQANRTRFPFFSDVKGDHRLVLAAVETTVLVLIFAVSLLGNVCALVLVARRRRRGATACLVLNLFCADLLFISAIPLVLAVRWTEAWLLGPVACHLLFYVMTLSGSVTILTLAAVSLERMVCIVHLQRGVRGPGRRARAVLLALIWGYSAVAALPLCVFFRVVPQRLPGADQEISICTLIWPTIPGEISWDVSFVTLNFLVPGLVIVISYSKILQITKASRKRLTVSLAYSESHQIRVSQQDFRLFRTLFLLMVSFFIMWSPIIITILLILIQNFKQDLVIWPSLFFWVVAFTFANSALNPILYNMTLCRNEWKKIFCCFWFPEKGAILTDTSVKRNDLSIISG

[2] = tested on: C57BL/6J mice; test: Intra peritoneal glucose tolerance test (IPGTT); format: in vivo; details: 30 mg/kg oral gavage 30 min before 2g/kg glucose intra peritoneally, overnight fasted male C57BL/6J mice, incremental AUC of glucose excursion vs vehicle; for inhibition in vivo at 30 mg/kg: Mus musculus, 2 h, read-out: % reduction IPGTT at 30mg/kg
Description: (§1) 8-10 week old male C57BL/6J mice (Harlan) were maintained on regular chow diet from Harlan (2018 Teklad Global). On the day before the experiment mice were fasted overnight, then randomized into groups (n=10-15) to receive the tested GPR120 agonist at doses ranging from 100mg/kg or the vehicle (1% CMC, 2% TWEEN 80). Compounds were delivered orally via gavage at 10mL/kg. Blood glucose levels were measured by glucometer (Ascensia Elite XL, Bayer) at time -30 minutes before administration of compound. Blood glucose was measured again after 30 minutes (at time 0), and then the mice were dosed intra peritoneally with 2g/kg glucose at 10mL/kg. Blood glucose measurements were taken 20, 40, 60, 90 and 120 minutes after glucose administration, by glucometer (Ascensia Elite XL, Bayer).
(§2) Glucose levels were plotted against time, and the incremental area under the curve (AUC) of the glucose excursion was determined from time 0 using Graphpad Prism 5.01. Outliers were excluded using Tukey's box plot outlier test, and statistical significance of differences in AUC of compound treatment compared to vehicle was determined by non-parametric Kruskal-Wallis test with Dunn's post test.
The compounds were tested at 30 mg/kg and the levels of blood glucose were determined in the presence and absence of the tested compounds. The percentage of glucose reduction is reported. The tested compounds were selected as Examples from the exemplified compounds. […]

[3] = tested on: C57BL/6J mice; test: Oral glucose tolerance test; format: in vivo; details: 6 h fasted male C57BL/6J mice, incremental AUC vs vehicle; for % reduction AUC glucose excursion at 100mg/kg: 100 mg/kg oral gavage 30 min before 3g/kg oral glucose; for % reduction AUC glucose excursion: Sitagliptin at 1mg/kg, 3g/kg oral glucose
Description: as §1, with “day of” for “day before”, “fasted for 6 hours,” for “fasted overnight,”, “dosed orally” for “dosed intra peritoneally”, “with 3g/kg” for “with 2g/kg”
as §2
Tables 2 and 3 below show the mean percentage inhibition of the glucose excursion for the fifteen animals tested in each group. The compounds were tested at 100 mg/kg and the levels of blood glucose were determined in the presence and absence of the tested compounds. The percentage of glucose reduction is reported. The tested compounds were selected as examples from the exemplified compounds. […]

Compound | activity at 2.5 µM [1] [%] | inhibition in vivo at 30 mg/kg [2] [%] | other results
COc1cc(OCc2cc(F)cc3c2OC(C)(C)C3)ccc1CCC(=O)O [Example 50, 3-(4-((5-fluoro-2,2-dimethyl-2,3-dihydrobenzofuran-7-yl)methoxy)-2-methoxyphenyl)propanoic acid] | 130 | 26.2 | 
Cc1c(CCC(=O)O)ccc(OCc2cc(F)cc3c2OC(C)(C)C3)c1C [Example 208, 3-(4-((5-fluoro-2,2-dimethyl-2,3-dihydrobenzofuran-7-yl)methoxy)-2,3-dimethylphenyl)propanoic acid] | 147 | 41.7 | 
CCOc1cc(OCc2cc(F)cc3c2OC(C)(C)C3)ccc1CCC(=O)O [Example 268, 3-(2-ethoxy-4-((5-fluoro-2,2-dimethyl-2,3-dihydrobenzofuran-7-yl)methoxy)phenyl)propanoic acid] |  | 23 | 
Cc1c(CCC(=O)O)ccc(OCc2cc(Cl)cc3c2OC(C)(C)C3)c1C [Example 209, 3-(4-((5-chloro-2,2-dimethyl-2,3-dihydrobenzofuran-7-yl)methoxy)-2,3-dimethylphenyl)propanoic acid] | 142 | 43.6 | 
C[C@H](Cc1ccc(OCc2cc(Cl)cc3c2OC(C)(C)C3)c(F)c1)C(=O)O [Example 141, (R)-3-(4-((5-chloro-2,2-dimethyl-2,3-dihydrobenzofuran-7-yl)methoxy)-3-fluorophenyl)-2-methylpropanoic acid] | 143 | 30.6 | 
3-(4-((5-chloro-2,2-dimethyl-2,3-dihydrobenzofuran-7-yl)methoxy)-3-fluorophenyl)-2-methylpropanoic acid [Example 10] |  |  | %Activity (GW9508 Reference Compound) ([1]; % activity at 5 µM compared to the maximal activity of GW9508 at 6.7 µM (=100%)): 106.7955%; % reduction AUC glucose excursion at 100mg/kg ([3]; Table 2): 58.1%; % reduction IPGTT at 30mg/kg [2]: 30.7%
CC(Cc1ccc(OCc2cc(Cl)cc3c2OC(C)(C)C3=O)c(F)c1)C(=O)O (stereo not shown) [Example 77, 3-(4-((5-chloro-2,2-dimethyl-3-oxo-2,3-dihydrobenzofuran-7-yl)methoxy)-3-fluorophenyl)-2-methylpropanoic acid] | 110 | 10.4 | 
CC1(C)Cc2cc(F)cc(COc3ccc(CCC(=O)O)cc3)c2O1 [Example 132, 3-(4-((5-fluoro-2,2-dimethyl-2,3-dihydrobenzofuran-7-yl)methoxy)phenyl)propanoic acid] |  | 6.5 | 
N[C@@H](CC(=O)N1CCn2c(nnc2C(F)(F)F)C1)Cc1cc(F)c(F)cc1F [Sitagliptin, sitagliptin, reference compound] |  |  | % reduction AUC glucose excursion ([3]; Table 2): 58.6%; % reduction AUC glucose excursion ([3]; Table 3): 48.6%
CC(Cc1ccc(OCc2cc(Cl)cc3c2OC(C)(C)C3)cc1)C(=O)O (stereo not shown) [Example 13] |  |  | % reduction AUC glucose excursion at 100mg/kg ([3]; Table 2): 61.9%
C[C@H](Cc1ccc(OCc2cc(F)cc3c2OC(C)(C)C3)cc1)C(=O)O [Example 65, (R)-3-(4-((5-fluoro-2,2-dimethyl-2,3-dihydrobenzofuran-7-yl)methoxy)phenyl)-2-methylpropanoic acid] | 141 | 22.2 | 
CC(Cc1ccc(OCc2cc(Cl)cc3c2OC(C)(C)C3)c(C(F)(F)F)c1)C(=O)O (stereo not shown) [Example 9, 3-(4-((5-chloro-2,2-dimethyl-2,3-dihydrobenzofuran-7-yl)methoxy)-3-(trifluoromethyl)phenyl)-2-methylpropanoic acid] |  | 19.8 | activity at 5 µM [1]: 113%
CC1(C)Cc2cc(F)cc(COc3ccc4c(c3)CC[C@@H]4CC(=O)O)c2O1 [Example 178, (R)-2-(5-((5-fluoro-2,2-dimethyl-2,3-dihydrobenzofuran-7-yl)methoxy)-2,3-dihydro-1H-inden-1-yl)acetic acid] | 106 | 16.3 | 
C[C@@H](Cc1ccc(OCc2cc(Cl)cc3c2OC(C)(C)C3)c(F)c1)C(=O)O [Example 142, (S)-3-(4-((5-chloro-2,2-dimethyl-2,3-dihydrobenzofuran-7-yl)methoxy)-3-fluorophenyl)-2-methylpropanoic acid] |  | 36.2 | 
CC1(C)Cc2cc(Cl)cc(COc3c(F)cc(C4CC4C(=O)O)cc3F)c2O1 (racemic) [Example 35, 2-(4-((5-chloro-2,2-dimethyl-2,3-dihydrobenzofuran-7-yl)methoxy)-3,5-difluorophenyl)cyclopropanecarboxylic acid] |  |  | activity at 5 µM [1]: 60.1%; % reduction AUC glucose excursion at 100mg/kg ([3]; Table 3): 27.7%
CC(Cc1ccc(OCc2cc(F)cc3c2OC(C)(C)C3)cc1)C(=O)O (stereo not shown) [Example 16, 3-(4-((5-fluoro-2,2-dimethyl-2,3-dihydrobenzofuran-7-yl)methoxy)phenyl)-2-methylpropanoic acid] |  | 19.4 | activity at 5 µM [1]: 111%; % reduction AUC glucose excursion at 100mg/kg ([3]; Table 3): 52.4%
CCc1cc(OCc2cc(F)cc3c2OC(C)(C)C3)ccc1CCC(=O)O [Example 134, 3-(2-ethyl-4-((5-fluoro-2,2-dimethyl-2,3-dihydrobenzofuran-7-yl)methoxy)phenyl)propanoic acid] | 151 | 30.2 | 
CC1(C)Cc2cc(Cl)cc(COc3ccc4c(c3)CCC4CC(=O)O)c2O1 (stereo not shown) [Example 36, 2-(5-((5-chloro-2,2-dimethyl-2,3-dihydrobenzofuran-7-yl)methoxy)-2,3-dihydro-1H-inden-1-yl)acetic acid] |  |  | activity at 5 µM [1]: 123%; % reduction AUC glucose excursion at 100mg/kg ([3]; Table 3): 33.6%
